Assay type in all cases: physicochemical
Data set [1] in a line: Degradation of PLGH by octreotide acetate in NMP, average molecular weight by GPC (Example 4). To be noted: ambient temperature, 2 hours. As for the experimental part: A solution of 34 wt % of 50/50 carboxyl terminated polylactide glycolide (PLGH at a 1:1 ratio of lactide to glycolide) in N-methylpyrrolidone (NMP) was prepared and divided into several aliquots. To a 950 mg aliquot was added 57.01 mg of octreotide acetate (OA) to provide a solution of 5.66 wt % octreotide acetate in a 34 wt % solution of PLGH in NMP. Upon standing at ambient temperature for 2 hours, the aliquot with OA and a control aliquot containing only PLGH and NMP were analyzed for average molecular weight of the PLGH by GPC analysis. The retention times were correlated against predetermined molecular weight standards of polylactide-glycolide which had been calibrated by GC-mass spectroscopy.

The nature of data set [2]: Effect of differing octreotide complexes on decomposition of PLGH in NMP, GPC (Example 7). To be noted: 35 wt % 50/50 PLGH in NMP, over 25 days, FIG. 3. As for the experimental part:
Aliquots of a solution of 50/50 polylactide glycolide having an inherent viscosity of 0.57 dL/g and an average molecular weight of 45,000 were prepared so as to provide 35 wt % aliquots of the PLGH in N-methylpyrrolidone (NMP). To individual aliquots was added one of the following octreotide free base (OB)—complexes: OB-citrate; OB mesylate; OB-acetate; OB-Glucuronate. The OB-citrate complex was studied at several ratios: excess OB, 1:3 exchange, 1:1 exchange and citrate to pH 7. The average molecular weight of the PLGH in the solution was periodically determined over a period of 25 days by GPC analysis using pre-calibrated polylactide-glycolide standards for retention times. The following graph presents the results. […] The data determined by this experiment are presented graphically in FIG. 3.

Data set [3] can be described thus: Precipitation / formulation studies of GHRP-1/ATRIGEL formulations (Example 9). Particulars: bulk GHRP-1 citrate solution, time needed for commercial manufacturing. Here is the method:
This formulation was identified as AL3922.02. […] Consequently, a fourth formulation (AL3922.04) was developed.
Table 1 summarizes the precipitation studies that were conducted for each formulation. The acronyms are identified as follows: GHRP-1 is a known […] mimicking growth hormone releasing peptide; DL2A is poly (DL) lactide-glycolide (75/25) having a terminal carboxyl group and an average molecular weight of about 13 kDa and an inherent viscosity of about 0.17 dL/g; NMP is N-methylpyrrolidone.

Regarding `C[C@@H](O)[C@@H]1NC(=O)[C@H](CCCCN)NC(=O)[C@@H](Cc2c[nH]c3ccccc23)NC(=O)[C@H](Cc2ccccc2)NC(=O)[C@@H](NC(=O)[C@H](N)Cc2ccccc2)CSSC[C@@H](C(=O)N[C@H](CO)[C@@H](C)O)NC1=O` (relative stereo) [octreotide acetate, L-cysteinamide, D-phenylalanyl-L-cysteinyl-L-phenylalanyl-D-tryptophyl-L-lysyl-L-threonyl-N-[2-hydroxy-1-(hydroxymethyl)propyl]-, cyclic (2→7)-disulfide; [R—(R*,R*)]], in data set [1] (5.66 wt % octreotide acetate in 34 wt % 50/50 PLGH in NMP, control aliquot 37,628 daltons), the “average molecular weight of the PLGH” value is 20,173 daltons. Further, the “degradation of the PLGH molecular weight” value in data set [1] (34 wt % PLGH in NMP) is recorded as “significant degradation”. Further, the “degradation of PLGH average molecular weight by octreotide complexes” value in data set [2] is “immediate dramatic degradation”.
Regarding “GHRP-1: growth hormone releasing peptide; seven amino acid peptide containing one lysine and one tryptophan (ATRIGEL)”, in data set [3], the “drug precipitation / remaining in solution (Comments)” value is “tended to precipitate out of the solution over a couple of hours”.

Source of the values: patent US8173148B2, “Stabilized polymeric delivery system comprising a water-insoluble polymer and an organic liquid” (priority 2004, dated 2012).
